According to paper PMC9403987 (Frontiers in Oncology, 2022):

How the values were obtained:
MHCC97L = test: Cell proliferation assay; format: cell-based; conditions: Homo sapiens, liver, hepatocellular carcinoma, 72 hours
Method: To quantify cell proliferation, either the nuclei of live cells were counted following staining with 4’,6-diamidino-2-phenylindole (DAPI; Sigma-Aldrich, Burlington, MA, USA), or metabolically active cells were detected using a CellTiter-Glo assay (Promega Corporation, Madison, WI, USA). Cells from a range of human and mammalian tumor cell lines (American Type Culture Collection, Manassas, VA, USA) were seeded at 4000 cells per well in 100 μL of culture medium in a 96-well plate and incubated overnight at 37°C with 5% CO2. […] In the DAPI staining method, cells were washed using 1× phosphate-buffered saline (PBS; Gibco Thermo Fisher Scientific, Waltham, MA, USA), fixed with 4% formaldehyde, permeabilized with 0.2% Triton X-100 (Sigma-Aldrich), washed again, and stained with 1 μg/mL DAPI to visualize cell nuclei. Cells were washed with 1× PBS three times, and 100 μL 1× PBS was added to each well. Plates were scanned using an IN Cell Analyzer 2200 (GE Healthcare Life Sciences, Chicago, IL, USA) and the number of cells per well was recorded. In the CellTiter-Glo assay, 60 μL of CellTiter-Glo luminescent solution was added to each well after incubation with the test compounds, and the assay plate was scanned using a Tecan Infinite M1000 PRO microplate reader (Tecan Group AG, Männedorf, Switzerland) to record luminescent signals.

[1] = system: breast cancer resistance protein (BCRP); conditions: cited from earlier work
[2] = Excretion of radioactivity in bile duct cannulated (BDC) rats; format: in vivo, Sprague Dawley rats
Method: (§1) To investigate the degree to which GLR2007 penetrated organs and tissues, and the levels of excretion of the compound, rats were dosed with radiolabeled GLR2007 and whole-body autoradiography was performed. Sprague Dawley rats (Vital River Laboratory Animal Technology Co., Beijing, China; N=38, female n=19; 8–11 weeks old) were maintained in humidity- and temperature-controlled conditions on a 12-hour light/dark cycle, with food (certified rat diet; Jiangsu Xietong Pharmaceutical Biological Engineering Co., Ltd, Jiangsu, China) and water available ad libitum. […] Urine, feces, and cage rinse/wash up to 168 hours after treatment were collected from six intact rats (three male, three female); bile, urine, feces, and cage rinse/wash up to 72 hours after treatment were collected from eight bile duct cannulated (BDC) rats (four male, four female). Heart, lung, liver, spleen, kidneys, whole brain, stomach tract wall, intestinal tract wall, skeletal muscle, body fat, reproductive organs (uterus and ovary for female rats, testis and epididymis for male rats) were collected at 2, 6, 24, and 72 hours after treatment (three male, three female per time point). The total radioactivity (TRA) of plasma, bile, urine, and cage rinse/wash samples was directly analyzed by liquid scintillation counting. Fecal and tissue homogenates and blood were combusted using a PerkinElmer Oxidizer (PerkinElmer Inc.), and the generated [^14C]CO2 was captured in ^14C scintillation cocktail (Shimadzu Corporation, Kyoto, Japan), followed by analysis using a PerkinElmer Liquid Scintillation Counter (PerkinElmer Inc.). The TRA levels determined in bile, urine, feces, and cage rinse/wash were used to calculate the percentage of the administered dose excreted. Mean TRA values of whole brain and plasma at 2, 6, 24, and 72 hours were used to calculate the area under concentration–time curve from time zero to 72 hours (AUC0–72), using a noncompartmental model in Phoenix WinNonlin v6.3 software (Certara, Princeton, NJ, USA).

CDK4–cyclin D1 = biological target: T1, CDK4–cyclin D1 (Homo sapiens, UniProt P11802); test: LANCE Ultra TR-FRET enzymatic profiling assay; format: biochemical
T1 construct: purchased Invitrogen
Method: Results were calculated as half-maximal inhibitory concentration (IC50) and inhibition constant (K i). IC50 and K i values were determined using the XLfit 205 model (ID Business Solutions Ltd, Guildford, UK) curve-fitting add-on for Microsoft Excel (Microsoft Corporation, Redmond, WA, USA).

NCI-H2228 = test: Subcutaneous NCI-H2228 non-small cell lung cancer xenograft; format: in vivo, BALB/c nude mice; conditions: 50 mg/kg daily oral, 28 days, measured day 34
Method: The efficacy of GLR2007 was evaluated in human GBM and breast cancer orthotopic cell-line-derived xenografts in NOD/SCID mice (Shanghai Lingchang Biotechnology Co. Ltd, Shanghai, China) and BALB/c nude mice (Shanghai Sino-British SIPPR/BK Laboratory Animal Co. Ltd, Shanghai, China), and human lung, colorectal, and liver cancer subcutaneous cell-line-derived xenografts in BALB/c nude mice (Nanjing University National Resource Center, Nanjing, China, or Beijing Anikeeper Biotech Co., Beijing, China). Mice were maintained in humidity- and temperature-controlled conditions with food and water available ad libitum. For subcutaneous models, female BALB/c nude mice were inoculated at 4–8 weeks old with 3×10^6–1×10^7 tumor cells (see Table 1 for xenograft model cell types) in the right flank for tumor development. Randomization was performed when the mean tumor volume reached 118–171 mm^3.

[3] = Excretion of radioactivity in intact rats; format: in vivo, Sprague Dawley rats
Method: as §1

T1 sequence (P11802 whole entry): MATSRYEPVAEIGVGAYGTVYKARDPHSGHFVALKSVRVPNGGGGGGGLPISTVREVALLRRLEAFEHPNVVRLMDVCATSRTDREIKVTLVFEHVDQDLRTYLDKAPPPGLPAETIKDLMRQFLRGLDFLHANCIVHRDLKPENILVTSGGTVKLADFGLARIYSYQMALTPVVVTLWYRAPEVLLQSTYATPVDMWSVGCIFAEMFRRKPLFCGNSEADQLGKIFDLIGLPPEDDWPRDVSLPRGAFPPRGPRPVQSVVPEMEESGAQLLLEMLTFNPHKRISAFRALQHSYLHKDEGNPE
T1 sequence (P24385 whole entry partner): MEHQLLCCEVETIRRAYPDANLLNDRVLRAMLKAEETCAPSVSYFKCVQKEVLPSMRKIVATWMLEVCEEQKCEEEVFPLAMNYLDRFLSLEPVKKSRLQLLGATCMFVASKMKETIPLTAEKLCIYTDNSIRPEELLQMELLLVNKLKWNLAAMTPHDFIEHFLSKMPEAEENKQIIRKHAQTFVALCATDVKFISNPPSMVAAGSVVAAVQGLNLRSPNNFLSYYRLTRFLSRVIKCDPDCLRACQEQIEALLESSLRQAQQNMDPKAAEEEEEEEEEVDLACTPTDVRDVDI

Row | SMILES | IC50 (MHCC97L) [nM] | Substrate of efflux transporter BCRP [1] | Dose recovered in bile ([2]; BDC rats, within 72 hours) [%] | Dose recovered ([2]; BDC rats, within 72 hours, single oral 6 mg/100 μCi/kg) [%] | Dose predicted to be absorbed ([2]; based on excretion in bile and urine from BDC rats) | Ki (CDK4–cyclin D1; CDK4/CyD1) [nM] | IC50 (CDK4–cyclin D1; CDK4/CyD1, 11 concentrations in duplicates) [nM] | TGI (%) (NCI-H2228) | Radioactivity excreted via feces ([3]; single oral 6 mg/100 μCi/kg) [%] | Dose recovered ([3]; within 168 hours, single oral 6 mg/100 μCi/kg) [%] | Dose recovered ([3]; within the first 48 hours) [%]
1 | CCN1CCN(Cc2ccc(Nc3ncc(F)c(-c4cc(F)c5nc(C)n(C(C)C)c5c4)n3)nc2)CC1 [Abemaciclib, abemaciclib, reference compound] | 236 | – | – | – | – | – | – | – | – | – | –
2 | CC1=Nc2c(F)cc(-c3nc(Nc4ccc(C5CCN(C)CC5)cn4)ncc3F)cc2C12CCCC2 [GLR2007] | – | not a substrate | 33.3 | 84.2 | at least 42.4% | < 0.1 | 0.22 | 33.9 | 84.10 | 95.5 | 74.3
